Data published in patent US20170165253A1, “TREATMENT OF SEXUAL DYSFUNCTION AND FOR IMPROVED SEXUAL QUALITY OF LIFE” (ReJoy, priority 2015, published 2017).
Values joined by “and” are separate entries in the source; they are usually repeats but may differ in a detail not shown here. Equal values may be shown once. Where a name gives a salt, the structure may show the parent alone.

Key:
[1] = IVRT skin penetration, synthetic skin model; type: in vitro ADME; conditions: 10% solution
Excerpt: Transdermal penetration of a particular formulation can be assessed with in vitro release testing (IVRT) using a Franz cell. See Bartosova and Bajagar, “Transdermal Drug Delivery In Vitro Using Diffusion Cells,” Current Medicinal Chemistry, 2012, 19, 4671-4677.
In order to determine the dermal absorption and bioavailability of topically applied 10% Phenylephrine Hydrochloride solution, we used an IVRT experimental setup with both skin excised from pig ears and a synthetic skin model (Maine Manufacturing, LLC, Me., USA).

[2] = test system: nipple areola complex; test: Restoration of nipple sensitivity post breast surgery, case study (Example 11); type: in vivo, human; conditions: Likert scale (1-10), 45 minutes after 10% solution, single patients; Hydrochloride
Method: A case study was conducted to assess the efficacy of a topical phenylephrine solution in increasing nipple sensitivity in patients that reported a loss in nipple sensitivity post breast surgery. Five subjects ages 36-65 participated in the study. Subjects were asked to rate their nipple sensitivity on a Likert scale (1-10) before surgery and currently (i.e., after surgery). Next, patients were asked to apply a 10% phenylephrine solution to each nipple areola complex. 45 minutes after application of the drug, patients were asked again to rate their nipple sensitivity on a Likert scale (1-10).

[3] = test system: nipple areola complex; test: Blinded study of 10%, 15%, 20% phenylephrine on the NAC: erection, sensitivity, lubrication, arousal (Example 12); type: in vivo, human; conditions: for Arousal / Lubrication: 60 minutes, change from baseline; for Responders, Arousal / Responders, Lubrication: 20 patients; for Erection: 1 = erection reported
Method: 20 healthy, pre-menopausal females were recruited to the study. Subjects were instructed to apply either 4 or 6 drops of an investigational drug to each nipple areola complex. Baseline blood-pressure, heart rate, nipple erection, nipple sensitivity, genital lubrication and arousal were measured and recorded. 30 minutes later, blood pressure and heart rate were measured and recorded. 60 minutes later, blood-pressure, heart rate, nipple erection, nipple sensitivity, genital lubrication and arousal were measured and recorded.
During the study, four parameters of efficacy were measured: nipple erection, nipple sensitivity, genital lubrication, and arousal. Efficacy parameters were all patient reported outcomes measured at 0 and 60 minutes after the application of the investigational drug. Nipple erection was determined by asking the patient if they had experienced nipple erection during the 60 minutes after the application of the investigational drug. Nipple sensitivity was measured with a Likert scale of 1-10 (1 being “insensitive”, 10 being “extremely sensitive/bordering on pain”) at 0 and 60 minutes after the application of the investigational drug. Genital lubrication was measured with a Likert scale of 1-10 (1 being “none”, 10 being “excellent”) at 0 and 60 minutes after the application of the investigational drug. Arousal was measured with a Likert scale of 1-10 (1 being “none”, 10 being “extremely aroused”) at 0 and 60 minutes after the application of the investigational drug.
After a 48-hour washout period, subjects repeated the procedure using 4 or 6 drops of a new arm of the study. The subjects and the investigator were blinded to the drug assignment in each arm. In total 6 arms were tested:
Nipple erection data was scored “1” for a positive response to the question “Did you experience nipple erection after applying the solution?” It was scored “0” otherwise. Sensitivity data was tabulated by subtracting the patient reported nipple sensitivity at 60 minutes from the reported value at baseline. Subjects were asked to rate their level of nipple sensitivity on a scale of 1-10 (1 being “non-sensitive” and 10 being “extremely sensitive, bordering on pain.”) Subjects reporting a sensitivity increase greater than 2 after the application of each investigational drug were considered sensitivity responders.
Genital lubrication was measured with a Likert scale of 1-10 (1 being “none” and 10 being “excellent”) at 0 and 60 minutes after the application of the investigational drug. Arousal was measured with a Likert scale of 1-10 (1 being “none” and 10 being “extremely aroused”) at 0 and 60 minutes after the application of the investigational drug. […] A subject was considered a responder for genital lubrication if they reported a change in genital lubrication of 2 or more.
A subject was considered a responder for arousal if they reported a change in arousal of 2 or more.

[4] = Heart rate, blood pressure and adverse events in Example 12; type: in vivo, human; conditions: for Delta HR t = 15: 15 minutes; for Delta HR t = 15 / Delta HR t = 30 / Delta HR t = 60: single patients, Hydrochloride; for Delta HR t = 30: 30 minutes; for Delta HR t = 60: 60 minutes
Method: 20 healthy, pre-menopausal females were recruited to the study. Subjects were instructed to apply either 4 or 6 drops of an investigational drug to each nipple areola complex. Baseline blood-pressure, heart rate, nipple erection, nipple sensitivity, genital lubrication and arousal were measured and recorded. […]

[5] = test system: arrector pili muscle; conditions: 1% w/v, iontophoresis; cited from earlier work
[6] = test system: nipple areole complex; test: Pilot study in female sexual dysfunction, SSE by Sexual Activity Record (Example 4)
[7] = 10% (Arm C), change of 2 or more
[8] = 15% (Arm D), single patients, Hydrochloride
[9] = 20% (Arm B), single patients, Hydrochloride

- maximal skin absorption in 24 hours [1]: ≤ 83%
Compound: CNC[C@H](O)c1cccc(O)c1 [Phenylephrine HCl, Phenylephrine Hydrochloride]
- Nipple Sensitivity, Post-Surgery + Drug [2]: 6 (2×) and 1 and 8 (2×)
- Percent responders, Arousal ([3]; 10% (Arm C)): 0%
- Percent responders, Lubrication ([3]; 10% (Arm C)): 5%
- Arousal ([3]; 10% (Arm C), Likert 1-10, single patients): 0
- Lubrication ([3]; 10% (Arm C), Likert 1-10, single patients, Hydrochloride): 0 (17×) and 1 (2×) and 2
- Responders, Arousal [3, 7]: 0
- Responders, Lubrication [3, 7]: 1
- % Responders, Erection ([3]; 10%, four drops): 37%
- % Responders, Sensitivity ([3]; 10%, four drops): 16%
- Erection ([3]; 10%, four drops (0.114 mL) per NAC, 0 otherwise, single patients, listed as PE, Hydrochloride): 0 (11×) and 1 (8×)
- Responders, Erection ([3]; 10%, four drops, 19 patients): 7
- Responders, Sensitivity ([3]; 10%, four drops, 19 patients): 3
- Sensitivity ([3]; 10%, four drops, change baseline to 60 minutes, scale 1-10, single patients, listed as PE, Hydrochloride): 1 (7×) and 0 (9×) and 5 and 2 (2×)
- % Responders, Erection ([3]; 10%, six drops): 50%
- % Responders, Sensitivity ([3]; 10%, six drops): 44%
- Erection ([3]; 10%, six drops (0.170 mL) per NAC, single patients, listed as PE, Hydrochloride): 1 (8×) and 0 (8×)
- Responders, Erection ([3]; 10%, six drops, 16 patients): 8
- Responders, Sensitivity ([3]; 10%, six drops, 16 patients): 7
- Sensitivity ([3]; 10%, six drops, change baseline to 60 minutes, scale 1-10, single patients, listed as PE, Hydrochloride): 4 (2×) and 0 (6×) and 1 (3×) and 3 (2×) and 2 (3×)
- Percent responders, Arousal ([3]; 15% (Arm D)): 0%
- Percent responders, Lubrication ([3]; 15% (Arm D)): 10%
- Responders, Arousal ([3]; 15% (Arm D)): 0
- Responders, Lubrication ([3]; 15% (Arm D)): 2
- Arousal [3, 8]: 0 (19×) and −1
- Lubrication [3, 8]: 0 (15×) and 2 and 1 (3×) and 3
- % Responders, Erection ([3]; 15%, four drops): 42%
- % Responders, Sensibility ([3]; 15%, four drops): 53%
- Responders, Erection ([3]; 15%, four drops, 19 patients): 8
- Responders, Sensibility ([3]; 15%, four drops, 19 patients): 10
- Erection ([3]; 15%, four drops, single patients, listed as PE, Hydrochloride): 0 (11×) and 1 (8×)
- Sensibility ([3]; 15%, four drops, change baseline to 60 minutes, scale 1-10, single patients, listed as PE, Hydrochloride): 0 (7×) and 2 (5×) and 5 and 1 (2×) and 3 (3×) and 9
- Percent responders, Arousal ([3]; 20% (Arm B)): 0%
- Percent responders, Lubrication ([3]; 20% (Arm B)): 20%
- Responders, Arousal ([3]; 20% (Arm B)): 0
- Responders, Lubrication ([3]; 20% (Arm B)): 4
- Arousal [3, 9]: 0 (19×) and 1
- Lubrication [3, 9]: 0 (15×) and 2 (3×) and 1 and 3
- % Responders, Erection ([3]; 20%, four drops): 68%
- % Responders, Sensitivity ([3]; 20%, four drops): 42%
- Responders, Erection ([3]; 20%, four drops, 19 patients): 13
- Responders, Sensitivity ([3]; 20%, four drops, 19 patients): 8
- Erection ([3]; 20%, four drops, single patients, listed as PE, Hydrochloride): 1 (13×) and 0 (6×)
- Sensitivity ([3]; 20%, four drops, change baseline to 60 minutes, scale 1-10, single patients, listed as PE, Hydrochloride): 0 (7×) and 1 (4×) and 2 (5×) and 4 (2×) and 9
- Delta HR t = 15 ([4]; 10% Arm C, four drops (0.114 mL) per NAC): −3 (2×) and −10 and 3 (4×) and −7 and 0 (3×) and −1 (2×) and −2 (3×) and 4 and −9 and 6 and −5
- Delta HR t = 30 ([4]; 10% Arm C, four drops): −2 and −12 and 13 and −7 (3×) and −3 (2×) and −1 (2×) and 5 and 7 (2×) and 3 (2×) and −4 (3×) and 0 (2×)
- Delta HR t = 60 ([4]; 10% Arm C, four drops): −2 (2×) and −7 and −1 (3×) and −6 (2×) and −4 (4×) and 5 (2×) and −8 and 7 and 2 (2×) and −9 and −10
- Delta HR t = 15 ([4]; 15% (Arm D), four drops): −9 (4×) and 1 (2×) and 0 and −4 (2×) and −6 and 4 and −15 and −8 and −5 and −3 (3×) and 6 and −1 and −2
- Delta HR t = 30 ([4]; 15% (Arm D), four drops): −14 and 4 (2×) and 0 and −1 and −2 (3×) and 6 and −10 (2×) and −4 and −5 and 2 and −12 and 8 and 5 and 1 and 3 and −8
- Delta HR t = 60 ([4]; 15% (Arm D), four drops): −16 and 4 and −6 (3×) and −2 (4×) and −4 and −7 and −9 and 1 and −3 (2×) and 0 (2×) and −10 and 2 and −11
- Delta HR t = 15 ([4]; 20% (Arm B), four drops): −15 and 3 and −2 (2×) and −1 (2×) and −6 (2×) and 2 and −4 (2×) and −10 and 6 and 1 and −7 and −5 and 10 and −3 and 7 and 0
- Delta HR t = 30 ([4]; 20% (Arm B), four drops): −20 and 4 and −6 and −14 and −3 (2×) and 7 (2×) and 1 (3×) and −1 (2×) and −7 and 10 (2×) and −9 (2×) and 3 and 6
- Delta HR t = 60 ([4]; 20% (Arm B), four drops): −21 (2×) and 3 and 1 and −13 and 6 and −1 and 0 (2×) and −8 and −6 (2×) and 4 (2×) and −3 (2×) and −4 and 11 and 9 and −2
- adverse event ([4]; 20% arm): one adverse event (nipple pain)
- changes in blood pressure or heart rate ([4]; all arms, 10-20%): no changes in blood pressure or heart rate
- piloerection on the forearm [5]: can activate the piloerection on the forearm
- Number of SSE (1 week) ([6]; 0.1 mL 10% solution per NAC about 1 hour before sexual activity, single subjects, Hydrochloride): 2 (2×) and 1 (2×) and 6 and 3 (3×) and 4
- time nipples remained sensitive ([6]; 10% solution): 3 to 4 h
- time to increased nipple sensitivity after application ([6]; 10% solution, all subjects): ≤ 30 min
- subjects with significant change in number of SSEs from baseline ([6]; nine subjects, one week): Seven subjects reported significant change in the number of SSEs from baseline
- adverse events ([6]; one subject of nine): slightly painful nipple erection
- persistence of sensitivity ([6]; one subject with initial slightly painful nipple erection): approximately 8 hours
- desire (modified FSFI desire domain) ([6]; subjects reporting increase in number of SSEs): increased desire
